Measured values published in patent US20200085789A1, “USE OF A PROTEASOME INHIBITOR FOR THE TREATMENT OF CENTRAL NERVOUS SYSTEM (CNS) CANCERS” (Celgene International II Sàrl, priority 2017, published 2020).

How the values were obtained:
[1] = test system: WHO Grade IV malignant glioma; assay: Progression free survival (PFS) and overall survival (OS), MRZ ± BEV in recurrent grade IV malignant glioma patients; format: in vivo, human
Protocol: Tumor response was measured every other cycle by RANO criteria.
The drugs were infused on 28-Day Cycles. Tumor response is assessed every other cycle by RANO criteria.
Tumor response, including PD activity, progression-free survival (PFS), and overall survival (OS) will be assessed. Tumor response will be assessed by the Investigators using RANO 2010 criteria. […] Endpoints of response based on tumor assessments will be calculated for subjects who received at least 3 doses of MRZ and had at least 1 post-dose tumor evaluation.
Tumor response including PD, progression-free survival (PFS), and overall survival (OS) will be assessed by the Investigators using RANO 2010 criteria.

[2] = Adverse events and DLT, MRZ with TMZ and RT in newly diagnosed WHO Grade IV malignant glioma; format: in vivo, human
Protocol: The clinical trial was a dose-escalation study (Stage 1, MRZ+TMZ+RT or MRZ+TMZ) consisting of two arms—concomitant and adjuvant—in each, MRZ added to standard of care at increasing IV doses in a 3+3 design, and a dose expansion study at RP2D (Stage 2, RP2D MRZ+TMZ+RT followed by RP2D MRZ+TMZ) first with concomitant and then with adjuvant standard of care.
In the experimental Stage 1 Concomitant Treatment (MRZ+TMZ+RT) Drug MRZ dose ranges from 0.55 mg/m^2 to 1.0 mg/m^2 given IV over 10 minutes on days 1, 8, 15, 29, and 36 during concomitant treatment. MRZ dose ranges from 0.55 to 1.0 mg/m^2 given IV over 10 minutes on Days 1, 8, 15 every 28 days during adjuvant treatment. TMZ will be administered once daily, 7 days/week, for 6 weeks, starting on Day 1, at a dose of 75 mg/m^2 during concomitant treatment. TMZ will be administered once daily on days 1-5 every cycle (28 day cycles, up to 12 cycles), dose range 150 to 200 mg/m^2 during adjuvant treatment. Radiation (RT) will be administered once daily 5 days/week, for 30 doses over 6 weeks to a total dose of 60 Gy, staring on Day 1 during concomitant treatment. Patients who complete concomitant treatment may continue on to adjuvant treatment, in the adjuvant cohort RT and TMZ treatment is received outside of protocol therapy.
In the experimental Stage 2 dose expansion 18 additional evaluable patients were enrolled in a cohort in which concomitant treatment (MRZ+TMZ+RT) is followed by adjuvant treatment (MRZ+TMZ) to confirm the MTD for each treatment regime as determined in the dose-escalation (Stage 1), and to assess preliminary activity of the recommended Phase 2 dose (RP2D, 0.8 mg/m^2). Table 44 and Table 45 give the treatment parameters of the present study and demographics of study participants.
Methods: Patients enrolled in separate concomitant (TMZ+RT+MRZ at 0.55, 0.7, 0.8, and 1.0 mg/m^2 dose levels DL) and adjuvant (TMZ+MRZ) cohorts in 3+3 design, followed by dose-expansion at the RD (concomitant followed by adjuvant). MRZ (10 min IV infusion): Concomitant (42 days (D), on D1, 8, 15, 29, 36; Adjuvant (28D-cycle) on D1, 8, 15.
Outcome Measures: Primary Outcome Measures: (1) Determine MRZ maximum tolerated dose (MTD) and recommended phase 2 dose (RP2D) for both concomitant treatment (MRZ+TMZ+RT) and adjuvant treatment (MRZ+TMZ). Time Frame: 42-day concomitant treatment and 28-day Cycle 1 adjuvant treatment. Description: Assess dose-limiting toxicities (DLTs) in each dose-escalation arm.
Methods: Patients enrolled in separate concomitant (TMZ/RT+MRZ) and adjuvant (TMZ+MRZ) treatment cohorts in dose-escalation (3+3 design, MRZ at 0.55, 0.7, 0.8, and 1.0 mg/m^2), followed by dose-expansion at the RD in concomitant followed by adjuvant treatment. MRZ (10 min IV infusion): Concomitant Day 1, 8, 15, 29, 36; Adjuvant (28D-cycle) Day 1, 8, 15.

[3] = Cohorts 1-3 0.55, 0.7, 0.8 mg/m^2 (21)
[4] = all grades, Cohort 2 0.7 mg/m^2 (9), concomitant and adjuvant combined
[5] = all grades, Cohort 3 0.8 mg/m^2 (6), concomitant and adjuvant combined
[6] = all grades, Cohort 4 1.0 mg/m^2 (12), concomitant and adjuvant combined
[7] = all grades, all dose-escalation cohorts 0.55-1.0 mg/m^2, N = 33, concomitant and adjuvant combined

## C[C@@]12OC(=O)[C@]1([C@@H](O)[C@@H]1C=CCCC1)NC(=O)[C@@H]2CCCl [MRZ, marizomib]
[1]; All Patients
  PFS Median: 1.8
[1]; All Pts
  6 mo Overall Survival: 64%
  9 mo Overall Survival: 64%
[1]; Methylated MGMT Promoter
  6 mo Overall Survival: 83%
  9 mo Overall Survival: 83%
  PFS Median: 1.7
[1]; Monotherapy, Methylated (7)
  OS 6 mo: 83%
  OS 9 mo: 83%
  OS Median: Undefined
  PFS 3 mo: 40%
  PFS Median: 1.7 months
[1]; Monotherapy, Unmethylated (18)
  OS 6 mo: 65%
  OS 9 mo: 65%
  OS Median: Undefined
  PFS 3 mo: 20%
  PFS Median: 1.9 months
[1]; Part II monotherapy, 16 events, median follow-up 9.2 months
  median overall survival: 11.4 months
[1]; Part II, N = 30, 14 censored
  OS 6 mo %: 59%
  OS 9 mo %: 54%
  OS 12 mo %: 17%
[1]; Unmethylated MGMT Promoter
  6 mo Overall Survival: 65%
  9 mo Overall Survival: 65%
  PFS Median: 1.9
[2]; 33 patients, dose-escalation
  Most common TEAEs (≥20% patients): fatigue, nausea, vomiting, hallucination, ataxia, headache
[2]
  Anorexia, Total # Patients with Grade 3 Event: 0
  Ataxia, Total # Patients with Grade 3 Event: 3
  Confusion, Total # Patients with Grade 3 Event: 2
  Constipation, Total # Patients with Grade 3 Event: 0
  Diarrhea, Total # Patients with Grade 3 Event: 0
  Dizziness, Total # Patients with Grade 3 Event: 0
  Fatigue, Total # Patients with Grade 3 Event: 2
  Hallucination, Total # Patients with Grade 3 Event: 0
  Headache, Total # Patients with Grade 3 Event: 2
  Nausea, Total # Patients with Grade 3 Event: 0
  Vomiting, Total # Patients with Grade 3 Event: 0
[2]; [3]
  Anorexia, Total # Patients with Grade 3 Event: 0
  Ataxia, Total # Patients with Grade 3 Event: 1
  Confusion, Total # Patients with Grade 3 Event: 0
  Constipation, Total # Patients with Grade 3 Event: 0
  Diarrhea, Total # Patients with Grade 3 Event: 0
  Dizziness, Total # Patients with Grade 3 Event: 0
  Fatigue, Total # Patients with Grade 3 Event: 5
  Hallucination, Total # Patients with Grade 3 Event: 1
  Headache, Total # Patients with Grade 3 Event: 0
  Nausea, Total # Patients with Grade 3 Event: 0
  Vomiting, Total # Patients with Grade 3 Event: 1
[2]; MRZ 0.7 mg/m^2, of 9 (Example 6)
  patients with at least one Grade ≥3 TEAE: 2
[2]; MRZ 0.7 mg/m^2, of 9, as of Feb. 1, 2018
  patients with Grade 3 TEAEs: 4
[2]; MRZ 0.8 mg/m^2, of 6 (Example 6)
  patients with at least one Grade ≥3 TEAE: 1
[2]; MRZ 0.8 mg/m^2, of 6, as of Feb. 1, 2018
  patients with Grade 3 TEAEs: 2
[2]; MRZ 1.0 mg/m^2, concomitant and adjuvant
  patients with DLTs: 5/12
[2]; MRZ 1.0 mg/m^2, of 12
  patients with at least one Grade ≥3 TEAE: 11
[2]; MRZ with SOC in ndGBM
  tolerability: well tolerated
[2]; [4]
  Anorexia, incidence of treatment-related adverse event: 3
  Ataxia, incidence of treatment-related adverse event: 1
  Confusion, incidence of treatment-related adverse event: 4
  Constipation, incidence of treatment-related adverse event: 6
  Diarrhea, incidence of treatment-related adverse event: 2
  Dizziness, incidence of treatment-related adverse event: 2
  Fatigue, incidence of treatment-related adverse event: 8
  Hallucination, incidence of treatment-related adverse event: 4
  Headache, incidence of treatment-related adverse event: 3
  Nausea, incidence of treatment-related adverse event: 4
  Vomiting, incidence of treatment-related adverse event: 4
[2]; [5]
  Anorexia, incidence of treatment-related adverse event: 2
  Ataxia, incidence of treatment-related adverse event: 1
  Confusion, incidence of treatment-related adverse event: 1
  Constipation, incidence of treatment-related adverse event: 2
  Diarrhea, incidence of treatment-related adverse event: 2
  Dizziness, incidence of treatment-related adverse event: 1
  Fatigue, incidence of treatment-related adverse event: 5
  Hallucination, incidence of treatment-related adverse event: 2
  Headache, incidence of treatment-related adverse event: 2
  Nausea, incidence of treatment-related adverse event: 5
  Vomiting, incidence of treatment-related adverse event: 4
[2]; [6]
  Anorexia, incidence of treatment-related adverse event: 1
  Ataxia, incidence of treatment-related adverse event: 4
  Confusion, incidence of treatment-related adverse event: 3
  Constipation, incidence of treatment-related adverse event: 4
  Diarrhea, incidence of treatment-related adverse event: 1
  Dizziness, incidence of treatment-related adverse event: 1
  Fatigue, incidence of treatment-related adverse event: 8
  Hallucination, incidence of treatment-related adverse event: 4
  Headache, incidence of treatment-related adverse event: 4
  Nausea, incidence of treatment-related adverse event: 5
  Vomiting, incidence of treatment-related adverse event: 4
[2]; [7]
  Anorexia, treatment-related adverse event, total in parentheses: Anorexia (8)
  Ataxia, treatment-related adverse event, total in parentheses: Ataxia (8)
  Confusion, treatment-related adverse event, total in parentheses: Confusion (9)
  Constipation, treatment-related adverse event, total in parentheses: Constipation (11)
  Diarrhea, treatment-related adverse event, total in parentheses: Diarrhea (7)
  Dizziness, treatment-related adverse event, total in parentheses: Dizziness (6)
  Fatigue, treatment-related adverse event, total in parentheses: Fatigue (26)
  Hallucination, treatment-related adverse event, total in parentheses: Hallucination (11)
  Headache, treatment-related adverse event, total in parentheses: Headache (10)
  Nausea, treatment-related adverse event, total in parentheses: Nausea (17)
  Vomiting, treatment-related adverse event, total in parentheses: Vomiting (12)
[2]; with TMZ and RT (SOC), ndGBM
  RP2D / recommended dose (RD) of MRZ: 0.8 mg/m^2
